Where “and” joins values, the source holds several entries; their conditions need not be identical. Equal values may be shown once. Read-outs that look alike come from different tables or passages of the source.
How the values were obtained:
human GPR61 N137A = molecular target: T1, human GPR61 N137A (Homo sapiens, UniProt Q9BZJ8, N137A); experiment: Functional cAMP assay (HTRF), transiently transfected CHO-K1 cells, GPR61 N137A mutant; format: cell-based; parameters: key to cAMP response (Figure 3e source data): nM cAMP per well, from standard curve; settings: for IC50: Fig. 3e table
T1 construct: expressed in transfected cells; host or cells: CHO-K1, transient (Fugene6)
T1 sequence (Q9BZJ8 whole entry N137A): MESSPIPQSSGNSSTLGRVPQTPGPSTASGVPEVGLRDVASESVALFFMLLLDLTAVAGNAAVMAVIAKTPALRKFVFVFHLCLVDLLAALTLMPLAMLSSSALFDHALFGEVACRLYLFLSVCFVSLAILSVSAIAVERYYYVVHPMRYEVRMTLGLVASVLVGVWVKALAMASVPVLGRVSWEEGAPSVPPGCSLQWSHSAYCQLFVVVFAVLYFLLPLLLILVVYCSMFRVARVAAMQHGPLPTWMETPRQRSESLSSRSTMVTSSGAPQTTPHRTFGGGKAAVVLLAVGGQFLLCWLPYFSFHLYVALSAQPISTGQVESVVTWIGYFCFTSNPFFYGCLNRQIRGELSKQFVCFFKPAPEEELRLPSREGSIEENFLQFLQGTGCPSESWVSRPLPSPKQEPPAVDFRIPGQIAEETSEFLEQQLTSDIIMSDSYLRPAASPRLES
Source text: The human GPR61 (reference sequence NM_031936.4) cDNA was synthesized and subcloned into pcDNA5/FRT/TO (Thermo Fisher, Pittsburgh, PA). The pcDNA5/FRT/TO/ human GPR61 plasmid was then transfected into the Flp-In™-CHO Cell Line (Thermo Fisher, Pittsburgh, PA) and a doxycycline-inducible clonal cell line was selected (CHO TREx hGPR61 WT). Sequences encoding untagged and HiBit/hemagglutinin (HA)-tagged versions of the wild-type human GPR61 were synthesized and cloned into pcDNA3.1. The HiBit ([…]) and HA ([…]) tags were sequentially included after the N-terminal initiator methionine. Four single amino acid substitutions (N137A, R140A, V288A, N345A) were then introduced in the untagged and tagged human GPR61 constructs using site-specific mutagenesis. The nucleotide sequences of all receptor constructs were confirmed by automated DNA sequencing.
Parental CHO-K1 cells were maintained at 37 °C in a humidified environment (5% CO2) and grown in Dulbecco’s Modified Eagle Medium (DMEM) F-12 media (Gibco, 11320033) supplemented with 10% FBS, 1% Glutamax (Gibco, 35050061) and 100units/ml penicillin and streptomycin (Gibco, 15140122. Cells were dissociated using a cell dissociation solution (Gibco, 13151-014), counted, and resuspended in complete culture media without antibiotics. Cells were then transiently transfected using Fugene6 (Promega) in a 384-well plate format (Corning, 3570). For each well, 7500 cells were transfected with 5 ng of receptor plasmid, 20 ng of carrier DNA (Promega, PAE4881) and 0.075 μl Fugene6 in a final volume of 25 μl. Fugene6 and DNA were separately diluted in Optimem media (Gibco, 31985070) (1.25 μl final volume each). Fugene6 and DNA solutions were then combined and incubated for 15 min at room temperature. The cell containing solution (22.5 μl) was then added and transfection reactions were mixed and transferred to the assay plate. Following 24 h incubation at 37 °C, wells were rinsed once and 25 μl of HiBit assay buffer (Phenol-red free DMEM F-12 media containing 2% FBS) was added per well. Surface and total receptor expression was measured separately by adding 25 μl per well of the extracellular (Promega, PRN2421) and lytic (Promega, PRN3040) assay solutions, respectively. Plates were incubated for 10 min at room temperature on a shaker and luciferase activity was measured using an EnVision plate reader (Perkin Elmer, Chicago, IL). Expression was normalized as percent of the wild-type receptor signal. Statistical comparisons of expression levels observed with WT versus GPR61 mutants were made by one-way analysis of variance with Dunnett’s post hoc test.
A homogeneous Time-Resolved Fluorescence (HTRF) assay (Perkin Elmer, Dynamic2 kit #) was used to assess receptor basal and inverse agonist activity at human GPR61, GPR62, and GPR101. For routine inverse agonist screening frozen CHO TREx human GPR61, GPR62 and GPR101 cells were used. Cells were thawed, resuspended in complete assay media (DMEM F-12, 10% HI FBS, 100 μg/mL Normocin, 700 μg/mL Hygromycin B and 15 μg/mL Blasticidin) containing 1ug/ml doxycycline, plated in white 384 well plates (Corning, 3570) at a density of 750 cells/well (25 μl/ well) and cultured at 37 °C in an incubator overnight. For studies assessing basal and inverse agonist activity at human GPR61 mutants, CHO-K1 cells were transiently transfected using Fugene6, plated in white 384 well plates (7500 cells/well) and grown overnight at 37 °C, as described for receptor expression studies. […]

Nav1.5 (Peak) = Nav1.5 (Peak) (Homo sapiens, UniProt Q14524); experiment: Nav1.5 (peak current) ion channel profiling, Qube384 automated patch clamp (standard and extended protocol); format: cell-based
Sequence of Nav1.5 (Peak) (Q14524 whole entry): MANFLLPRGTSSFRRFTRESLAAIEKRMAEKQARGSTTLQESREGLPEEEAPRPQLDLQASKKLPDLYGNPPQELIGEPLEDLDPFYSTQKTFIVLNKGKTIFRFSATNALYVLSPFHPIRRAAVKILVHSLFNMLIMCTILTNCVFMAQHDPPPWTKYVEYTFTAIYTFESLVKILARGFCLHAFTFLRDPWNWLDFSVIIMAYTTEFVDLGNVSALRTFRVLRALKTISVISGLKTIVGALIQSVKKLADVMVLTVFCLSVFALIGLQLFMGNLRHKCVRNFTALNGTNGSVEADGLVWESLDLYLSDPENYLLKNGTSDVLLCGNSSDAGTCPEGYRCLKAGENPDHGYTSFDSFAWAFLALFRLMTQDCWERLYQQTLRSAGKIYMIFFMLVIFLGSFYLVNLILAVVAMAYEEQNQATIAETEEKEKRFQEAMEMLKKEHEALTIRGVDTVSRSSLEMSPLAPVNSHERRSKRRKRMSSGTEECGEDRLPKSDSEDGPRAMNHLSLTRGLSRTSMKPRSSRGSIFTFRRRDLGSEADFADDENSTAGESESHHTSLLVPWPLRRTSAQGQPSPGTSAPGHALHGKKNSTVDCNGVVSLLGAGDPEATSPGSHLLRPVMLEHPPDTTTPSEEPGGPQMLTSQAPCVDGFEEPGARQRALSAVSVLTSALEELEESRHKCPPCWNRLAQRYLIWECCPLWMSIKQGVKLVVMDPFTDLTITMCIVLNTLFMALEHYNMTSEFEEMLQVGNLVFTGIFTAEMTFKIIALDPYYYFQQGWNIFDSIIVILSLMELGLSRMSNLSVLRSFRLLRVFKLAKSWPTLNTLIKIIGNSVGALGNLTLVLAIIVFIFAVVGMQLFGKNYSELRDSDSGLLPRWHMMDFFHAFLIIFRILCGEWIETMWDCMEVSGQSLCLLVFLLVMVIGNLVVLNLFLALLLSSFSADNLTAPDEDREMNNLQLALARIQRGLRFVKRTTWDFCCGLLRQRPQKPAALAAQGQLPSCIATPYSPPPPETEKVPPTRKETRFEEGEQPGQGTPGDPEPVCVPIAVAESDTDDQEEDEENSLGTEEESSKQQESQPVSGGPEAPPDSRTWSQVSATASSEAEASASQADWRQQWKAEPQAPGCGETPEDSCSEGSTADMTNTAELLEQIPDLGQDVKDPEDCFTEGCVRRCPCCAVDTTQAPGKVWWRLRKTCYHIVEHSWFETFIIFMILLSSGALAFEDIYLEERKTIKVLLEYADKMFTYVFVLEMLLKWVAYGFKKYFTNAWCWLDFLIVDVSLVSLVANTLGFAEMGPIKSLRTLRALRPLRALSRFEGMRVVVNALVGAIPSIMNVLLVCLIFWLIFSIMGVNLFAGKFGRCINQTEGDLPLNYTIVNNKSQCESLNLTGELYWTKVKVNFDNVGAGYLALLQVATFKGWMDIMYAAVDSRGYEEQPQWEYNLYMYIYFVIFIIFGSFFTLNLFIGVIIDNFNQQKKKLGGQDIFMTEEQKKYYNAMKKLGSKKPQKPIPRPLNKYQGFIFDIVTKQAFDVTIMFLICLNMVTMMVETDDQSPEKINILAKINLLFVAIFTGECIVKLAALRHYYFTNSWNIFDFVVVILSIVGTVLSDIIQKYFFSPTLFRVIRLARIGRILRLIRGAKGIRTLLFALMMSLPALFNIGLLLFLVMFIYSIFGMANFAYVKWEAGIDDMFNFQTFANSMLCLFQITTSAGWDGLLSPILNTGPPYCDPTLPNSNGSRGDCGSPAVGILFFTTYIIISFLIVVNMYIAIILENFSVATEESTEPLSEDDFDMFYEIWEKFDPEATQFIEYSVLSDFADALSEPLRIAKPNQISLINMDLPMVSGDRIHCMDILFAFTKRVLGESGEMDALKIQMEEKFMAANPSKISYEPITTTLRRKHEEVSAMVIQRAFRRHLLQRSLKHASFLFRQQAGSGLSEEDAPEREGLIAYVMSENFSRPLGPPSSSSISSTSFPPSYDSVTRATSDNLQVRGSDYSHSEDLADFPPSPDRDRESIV
Source text: 105 hERG, Nav1.5 and Cav1.2 Ion Channel Profiling
106 Ionic curr ents wer e evalu ated in the whole-cell con figuration using the Qube384 automated planar
107 patch clamp platform (Sophion Bioscience A/S, Ballerup, Denmark). […]
116 HEPES, 2 Na2ATP, pH 7.2, 305 mOsM. […]
126 Nav1.5 current, from a holding potential of - 80 mV, a 200 ms prepulse to - 120 mV was used to
127 homogenize channel inactivation, followed by a 40 ms step to a test potential of - 15 mV.
128 Membrane potential was further depolarized to +40 mV for 200 ms to completely inactivate the
129 peak Nav1.5 current, followed by a ramp from +40 mV to - 80 mV (-1.2 mV/ms). This voltage
130 pattern was repeated at 0.1 Hz, with peak Nav1.5 defined as the maximum current during the step
131 to - 15 mV. All studies were conducted at 23° C.
132 Compounds were dissol ved and initially diluted in dimethyl sulfoxide (DMSO), with a final
133 dilution in external solution to generate final working concent rations. The final DMSO
134 concentration in all experiments was 0.33% (v/v).
135 For all protocols three vehicle periods each lasting 5 minutes were applied to establish a stable
136 baseline. For the standard protocol this was followed by the addition of increasing concentrations
137 of test compound, with each exposure lasting 5 minutes. For the “extended” protocol following
138 the three- vehi cle additional each well subsequentl y received a single concentration of compound.
139 This application was repeated three times for each well, via a flowthrough addition where the
140 solution was replaced wi th the same compound concentration with each addition. Each exposure
142 Patch clamp data were analyzed using Assay Software 6.4.72 (Sophion Bioscience A/S, Ballerup,
143 Denmark). Current amplitudes were determined by averaging the last 4 currents under each test
144 condition. The percentage inhibition of each compound was determined by taking the ratio of
145 current amplitude measured in the presence of various concentrations of the test compound
146 (ICompound) versus the vehicle control current (IVehicle):
148 A dose-response curve was generat ed and fit to the Hill equation by the Sophion Analyzer software
149 to determine an IC50 value for each compound. The minimum and the slope of the fit were free
150 fitted, with the top being fixed to 100% inhibition.
151 GABA Patch Clamp Assay
152 Compound effects on the human GABAA recepto r (α1β2γ2), stably express ed in human embryonic
153 kidney (HEK) cells, were examined in three modes of action: agonist, antagonist and positive
154 allosteric modulation (PAM) modes. Chloride currents evoked by the activation of the GABAA
155 recepto r wer e reco rded in the whole- cell patch clamp configuration with the automated Qube384®
156 platform (Sophion Bioscience A/S, Baltorpvej, Denmark). […]

SMILES: CCOc1cc(C)nc(N(CCOC)S(=O)(=O)c2ccc(NCc3c(F)cncc3F)nc2OC)n1 [Compound 1]
- reduction of potency relative to wild-type in the cAMP assay (human GPR61 N137A; Asn137 to Ala mutation vs wild-type): about 100 fold
- IC50 (human GPR61 N137A; HiBit-tagged, read-out: GPR61 cAMP IC50 (95% CI), N137A HiBit-tagged): 3.34 µM
- IC50 (human GPR61 N137A; untagged, read-out: GPR61 cAMP IC50 (95% CI), N137A Untagged): 1.73 µM
- cAMP response (Figure 3e source data) (human GPR61 N137A; HiBit N137A, concentration -6.5): 4.93 and 5.62 and 3.82 and 3.87 and 6.18 and 6.86
- cAMP response (Figure 3e source data) (human GPR61 N137A; HiBit N137A, concentration -7.5): 4.76 and 5.49 and 3.72 and 4.04 and 6.75 and 6.55
- cAMP response (Figure 3e source data) (human GPR61 N137A; HiBit N137A, concentration -8): 6.63 and 6.17 and 3.76 and 4.15 and 6.97 and 7.08
- cAMP response (Figure 3e source data) (human GPR61 N137A; HiBit N137A, concentration -9): 2.87 and 4.76 and 3.00 and 3.25 and 3.54
- cAMP response (Figure 3e source data) (human GPR61 N137A; Untagged N137A, concentration -6): 4.52 and 4.56 and 3.59 and 3.47 and 5.45 and 5.98
- IC50 (Nav1.5 (Peak)): > 100000 nM
- IC50 (Nav1.5 (Peak); read-out: Ion Channel Extended Protocol IC50 (nM), Period 1st, Nav1.5 (Peak), extended protocol, 1st period): > 100000 nM
- IC50 (Nav1.5 (Peak); read-out: Ion Channel Extended Protocol IC50 (nM), Period 2nd, Nav1.5 (Peak), extended protocol, 2nd period): > 100000 nM
- IC50 (Nav1.5 (Peak); read-out: Ion Channel Extended Protocol IC50 (nM), Period 3rd, Nav1.5 (Peak), extended protocol, 3rd period): > 100000 nM
